Measured values published in publication PMC7419507, “In vitro Cas9-assisted editing of modular polyketide synthase genes to produce desired natural product derivatives” (Nature Communications, 2020).
Several values for one entry are separate records, joined by “and”; a condition that tells them apart may be missing. Identical values can stand only once.

What was measured:
[1] = Cytotoxicity assay (CellTiter-Glo, 72 h), Jurkat; format: cell-based; conditions: human, Jurkat cells (T lymphoma), raw data (replicates)
Procedure, shortened: (§1)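 Following 4 h attachment at 1000 cells/well, the three lines received serially halved compound doses (DMSO 0.5%) for 72 h at 37 °C under 5% CO2, with cell viability then determined by CellTiter-Glo.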

T lymphoma Jurkat cells = experiment: Cytotoxicity assay (CellTiter-Glo, 72 h), Jurkat; format: cell-based; conditions: raw data (replicates)
Procedure, shortened: as §1

For COC1CC2CCC(C)C(O)(O2)C(=O)C(=O)N2CCCCC2C(=O)OC(C(C)CC2CCC(O)C(OC)C2)CC(=O)C(C)C=C(C)C(O)CC(=O)C(C)C=C(C)C=CC=CC=C1C (stereo not shown) [Compound 14], which viability at 72 h, 9.53674e-05 uM ([1]; conc 9.53674e-5 uM) is on record?
The viability at 72 h, 9.53674e-05 uM was 100%.

What about the viability at 72 h, 0.000190735 uM ([1]; conc 0.000190735 uM) of the same molecule?
Its viability at 72 h, 0.000190735 uM is 99.4%.

And the viability at 72 h, 0.00038147 uM ([1]; conc 0.00038147 uM)?
The viability at 72 h, 0.00038147 uM was 100%.

And the viability at 72 h, 0.000762939 uM ([1]; conc 0.000762939 uM)?
Its viability at 72 h, 0.000762939 uM is 99.9%.

What about the viability at 72 h, 0.00152588 uM ([1]; conc 0.00152588 uM) of the same molecule?
Its viability at 72 h, 0.00152588 uM is 101%.

What about the viability at 72 h, 0.00305176 uM ([1]; conc 0.00305176 uM) of the same molecule?
Its viability at 72 h, 0.00305176 uM is 103%.

And the viability at 72 h, 0.00610352 uM ([1]; conc 0.00610352 uM)?
Its viability at 72 h, 0.00610352 uM is 98.3%.

And the viability at 72 h, 0.012207 uM ([1]; conc 0.012207 uM)?
The viability at 72 h, 0.012207 uM was 100%.

What about the viability at 72 h, 0.0244141 uM ([1]; conc 0.0244141 uM) of the same molecule?
Its viability at 72 h, 0.0244141 uM is 102%.

What about the viability at 72 h, 0.0488281 uM ([1]; conc 0.0488281 uM) of the same molecule?
The viability at 72 h, 0.0488281 uM was 101%.

What about the viability at 72 h, 0.0976562 uM ([1]; conc 0.0976562 uM) of the same molecule?
Its viability at 72 h, 0.0976562 uM is 97.1%.

What about the viability at 72 h, 0.195312 uM ([1]; conc 0.195312 uM) of the same molecule?
Its viability at 72 h, 0.195312 uM is 95.7%.

What about the viability at 72 h, 0.390625 uM ([1]; conc 0.390625 uM) of the same molecule?
The viability at 72 h, 0.390625 uM was 94%.

And the viability at 72 h, 0.78125 uM ([1]; conc 0.78125 uM)?
Its viability at 72 h, 0.78125 uM is 78.6%.

What about the viability at 72 h, 1.5625 uM ([1]; conc 1.5625 uM) of the same molecule?
Its viability at 72 h, 1.5625 uM is 66.2%.

What about the viability at 72 h, 3.125 uM ([1]; conc 3.125 uM) of the same molecule?
Its viability at 72 h, 3.125 uM is 45.1%.

What about the viability at 72 h, 6.25 uM ([1]; conc 6.25 uM) of the same molecule?
Its viability at 72 h, 6.25 uM is 45.6%.

What about the viability at 72 h, 12.5 uM ([1]; conc 12.5 uM) of the same molecule?
The viability at 72 h, 12.5 uM was 38.2%.

And the viability at 72 h, 25 uM ([1]; conc 25 uM)?
Its viability at 72 h, 25 uM is 31.3%.

What about the viability at 72 h, 50 uM ([1]; conc 50 uM) of the same molecule?
The viability at 72 h, 50 uM was 0.9%.

What about the “Jurkat viability (%)” value (T lymphoma Jurkat cells; conc 9.53674e-5 uM) of the same molecule?
The value was 99.0% and 99.6%.

What about the “Jurkat viability (%)” value (T lymphoma Jurkat cells; conc 0.000190735 uM) of the same molecule?
Its value is 96.4% and 106.9%.

And the “Jurkat viability (%)” value (T lymphoma Jurkat cells; conc 0.00038147 uM)?
The value was 106.3% and 110.1%.

What about the “Jurkat viability (%)” value (T lymphoma Jurkat cells; conc 0.000762939 uM) of the same molecule?
The value was 94.3% and 106.0%.

And the “Jurkat viability (%)” value (T lymphoma Jurkat cells; conc 0.00152588 uM)?
The value was 101.0% and 106.0%.

And the “Jurkat viability (%)” value (T lymphoma Jurkat cells; conc 0.00305176 uM)?
Its value is 97.8%.

What about the “Jurkat viability (%)” value (T lymphoma Jurkat cells; conc 0.00610352 uM) of the same molecule?
Its value is 106.2% and 106.5%.

What about the “Jurkat viability (%)” value (T lymphoma Jurkat cells; conc 0.012207 uM) of the same molecule?
Its value is 99.3%.

What about the “Jurkat viability (%)” value (T lymphoma Jurkat cells; conc 0.0244141 uM) of the same molecule?
Its value is 108.2% and 105.8%.

And the “Jurkat viability (%)” value (T lymphoma Jurkat cells; conc 0.0488281 uM)?
Its value is 103.9% and 107.5%.

What about the “Jurkat viability (%)” value (T lymphoma Jurkat cells; conc 0.0976562 uM) of the same molecule?
The value was 96.8%.

What about the “Jurkat viability (%)” value (T lymphoma Jurkat cells; conc 0.195312 uM) of the same molecule?
Its value is 93.3% and 90.8%.

What about the “Jurkat viability (%)” value (T lymphoma Jurkat cells; conc 0.390625 uM) of the same molecule?
Its value is 89.0% and 89.4%.

And the “Jurkat viability (%)” value (T lymphoma Jurkat cells; conc 0.78125 uM)?
The value was 77.6% and 70.2%.

What about the “Jurkat viability (%)” value (T lymphoma Jurkat cells; conc 1.5625 uM) of the same molecule?
Its value is 62.3% and 57.2%.

What about the “Jurkat viability (%)” value (T lymphoma Jurkat cells; conc 3.125 uM) of the same molecule?
The value was 49.0% and 51.4%.

What about the “Jurkat viability (%)” value (T lymphoma Jurkat cells; conc 6.25 uM) of the same molecule?
Its value is 45.2% and 40.6%.

And the “Jurkat viability (%)” value (T lymphoma Jurkat cells; conc 12.5 uM)?
The value was 39.4% and 37.1%.

What about the “Jurkat viability (%)” value (T lymphoma Jurkat cells; conc 25 uM) of the same molecule?
Its value is 31.9% and 26.3%.

What about the “Jurkat viability (%)” value (T lymphoma Jurkat cells; conc 50 uM) of the same molecule?
The value was 1.0% and 0.558%.
